Where two headings read alike, the source gives them in different places.
Test: Repeated once-daily oral dosing with food (Days 1-7) in healthy subjects, PK and PD
Type: in vivo, human
Settings: for Cmax: read-out: Cmax, Mean (SD); for AUC(0-inf): read-out: AUCinf, Mean (SD)
Protocol: A randomized, double-blind, placebo-controlled, parallel-dose group in-patient study is conducted to investigate the pharmacodynamic (PD) effects of crystalline Form II of Compound (I) in healthy subjects.
The study is designed as a three-part, sequential study. The sequential nature of the study ensures that a range of doses are investigated first in a young, healthy population (Part 1) before proceeding to higher doses in the healthy population and the comparator populations (intermediate age and elderly) (Parts 2 and 3). For the purposes of this study, “young” refers to a subject who is 18 to 45 years of age, “intermediate age” refers to a subject who is 46 to 64 years of age, and “elderly” refers to a subject who is 65 years of age or older.
After a screening period of up to 21 days (Days −23 to −3), 16 healthy, young male and female subjects are randomly assigned to a dose group as shown in Table 9.
Each parallel dose group is balanced for gender (approximately equal number of males and females). The randomized subjects are domiciled from Day −1 through Day 8. On Day −1, the subjects receive placebo tablets in the fed state and undergo ambulatory blood pressure monitoring (ABPM) and safety assessments to establish time-matched baselines. On Days 1-7, the subjects receive the study drug in the fed state and undergo safety, pharmacokinetic (PK) and pharmacodynamics (PD) assessments. On Days 8-11, follow-up PK and safety assessments are performed.
Safety assessments include Clinician-Administered Dissociative States Scale (CADSS), Columbia-Suicide Severity Rating Scale (C-SSRS), concomitant medication, adverse event (AE) and vital sign assessments. In PK assessments, blood samples are taken and analyzed to determine PK parameters such as Cmax, Tmax, AUC0-24, and t1/2. PD assessments include ABPM, plasma brain-derived neurotrophic factor (BDNF) measurements, and Profile of Mood States (POMS) assessments.
After a screening period of up to 21 days (Days −23 to −3), 16 subjects (8 healthy, young male and female subjects, and 8 healthy, intermediate age male and female subjects) are randomly assigned to a dose group as shown in Table 10.
After a screening period of up to 21 days (Days −23 to −3), 16 subjects (8 healthy, young male and female subjects, and 8 healthy, elderly male and female subjects) are randomly assigned to a dose group as shown in Table 11.

[1] = both sexes, human, plasma, oral, 12 mg, young subjects, 12 mg, Day 7
[2] = both sexes, human, plasma, oral, 16 mg, young subjects, 16 mg, Day 7
[3] = both sexes, human, plasma, oral, 20 mg, young subjects, 20 mg, Day 7

Q: With `Cc1ccc(COC(=O)N2CC[C@H](CNc3ncccn3)[C@H](F)C2)cc1` [Form II, 4-methylbenzyl (3S, 4R)-3-fluoro-4-[(pyrimidin-2-ylamino)methyl] piperidine-1-carboxylate] as the molecule, how does the AUC(0-t) (both sexes, human, plasma, oral, 12 mg, young subjects, 12 mg, Day 1, read-out: AUC0-24, Mean (SD)) read?
A: 1860 ng·h/mL

Q: What about the AUC(0-t) (both sexes, human, plasma, oral, 12 mg, young subjects, 12 mg, Day 1, read-out: AUClast, Mean (SD)) of the same molecule?
A: 1840 ng·h/mL

Q: What about the Cmax (both sexes, human, plasma, oral, 12 mg, young subjects, 12 mg, Day 1) of the same molecule?
A: 239 ng/mL

Q: What about the Vd/F (both sexes, human, plasma, oral, 12 mg, young subjects, 12 mg, Day 1, read-out: Vz/F, Mean (SD)) of the same molecule?
A: 197 L

Q: And the Tmax (both sexes, human, plasma, oral, 12 mg, young subjects, 12 mg, Day 1, read-out: tmax, Mean (SD))?
A: 1.77 h

Q: What about the Tmax (both sexes, human, plasma, oral, 12 mg, young subjects, 12 mg, Day 1, read-out: tmax, Median) of the same molecule?
A: 1.5 h

Q: And the AUC(0-t) (both sexes, human, plasma, oral, 12 mg, young subjects, 12 mg, Day 7, read-out: AUC0-24, Mean (SD))?
A: 3060 ng·h/mL

Q: And the AUC(0-inf) [1]?
A: 5930 ng·h/mL

Q: What about the AUC(0-t) (both sexes, human, plasma, oral, 12 mg, young subjects, 12 mg, Day 7, read-out: AUClast, Mean (SD)) of the same molecule?
A: 5610 ng·h/mL

Q: And the Cmax [1]?
A: 274 ng/mL

Q: What about the Vd/F (both sexes, human, plasma, oral, 12 mg, young subjects, 12 mg, Day 7, read-out: Vss/F, Mean (SD)) of the same molecule?
A: 115 L

Q: And the half-life (both sexes, human, plasma, oral, 12 mg, young subjects, 12 mg, Day 7, read-out: t1/2, Mean (SD) (converted))?
A: 20.5 h

Q: And the Tmax (both sexes, human, plasma, oral, 12 mg, young subjects, 12 mg, Day 7, read-out: tmax, Mean (SD))?
A: 2.42 h

Q: What about the Tmax (both sexes, human, plasma, oral, 12 mg, young subjects, 12 mg, Day 7, read-out: tmax, Median) of the same molecule?
A: 2.5 h

Q: What about the AUC(0-t) (both sexes, human, plasma, oral, 16 mg, young subjects, 16 mg, Day 1, read-out: AUC0-24, Mean (SD)) of the same molecule?
A: 2660 ng·h/mL

Q: What about the AUC(0-t) (both sexes, human, plasma, oral, 16 mg, young subjects, 16 mg, Day 1, read-out: AUClast, Mean (SD)) of the same molecule?
A: 2630 ng·h/mL

Q: And the Cmax (both sexes, human, plasma, oral, 16 mg, young subjects, 16 mg, Day 1)?
A: 306 ng/mL

Q: And the Vd/F (both sexes, human, plasma, oral, 16 mg, young subjects, 16 mg, Day 1, read-out: Vz/F, Mean (SD))?
A: 175 L

Q: And the Tmax (both sexes, human, plasma, oral, 16 mg, young subjects, 16 mg, Day 1, read-out: tmax, Mean (SD))?
A: 2.58 h

Q: What about the Tmax (both sexes, human, plasma, oral, 16 mg, young subjects, 16 mg, Day 1, read-out: tmax, Median) of the same molecule?
A: 3 h

Q: What about the AUC(0-t) (both sexes, human, plasma, oral, 16 mg, young subjects, 16 mg, Day 7, read-out: AUC0-24, Mean (SD)) of the same molecule?
A: 4300 ng·h/mL

Q: And the AUC(0-inf) [2]?
A: 8020 ng·h/mL

Q: And the AUC(0-t) (both sexes, human, plasma, oral, 16 mg, young subjects, 16 mg, Day 7, read-out: AUClast, Mean (SD))?
A: 7450 ng·h/mL

Q: What about the Cmax [2] of the same molecule?
A: 413 ng/mL

Q: And the half-life (both sexes, human, plasma, oral, 16 mg, young subjects, 16 mg, Day 7, read-out: t1/2, Mean (SD) (converted))?
A: 20 h

Q: What about the Tmax (both sexes, human, plasma, oral, 16 mg, young subjects, 16 mg, Day 7, read-out: tmax, Mean (SD)) of the same molecule?
A: 1.75 h

Q: And the Tmax (both sexes, human, plasma, oral, 16 mg, young subjects, 16 mg, Day 7, read-out: tmax, Median)?
A: 1.75 h

Q: And the AUC(0-t) (both sexes, human, plasma, oral, 20 mg, young subjects, 20 mg, Day 1, read-out: AUC0-24, Mean (SD))?
A: 3520 ng·h/mL

Q: What about the AUC(0-t) (both sexes, human, plasma, oral, 20 mg, young subjects, 20 mg, Day 1, read-out: AUClast, Mean (SD)) of the same molecule?
A: 3480 ng·h/mL

Q: And the Cmax (both sexes, human, plasma, oral, 20 mg, young subjects, 20 mg, Day 1)?
A: 384 ng/mL

Q: And the Vd/F (both sexes, human, plasma, oral, 20 mg, young subjects, 20 mg, Day 1, read-out: Vz/F, Mean (SD))?
A: 148 L

Q: What about the Tmax (both sexes, human, plasma, oral, 20 mg, young subjects, 20 mg, Day 1, read-out: tmax, Mean (SD)) of the same molecule?
A: 2.17 h

Q: And the Tmax (both sexes, human, plasma, oral, 20 mg, young subjects, 20 mg, Day 1, read-out: tmax, Median)?
A: 2.25 h

Q: What about the AUC(0-t) (both sexes, human, plasma, oral, 20 mg, young subjects, 20 mg, Day 7, read-out: AUC0-24, Mean (SD)) of the same molecule?
A: 6040 ng·h/mL

Q: And the AUC(0-inf) [3]?
A: 10500 ng·h/mL

Q: What about the AUC(0-t) (both sexes, human, plasma, oral, 20 mg, young subjects, 20 mg, Day 7, read-out: AUClast, Mean (SD)) of the same molecule?
A: 10100 ng·h/mL

Q: What about the Cmax [3] of the same molecule?
A: 534 ng/mL

Q: What about the half-life (both sexes, human, plasma, oral, 20 mg, young subjects, 20 mg, Day 7, read-out: t1/2, Mean (SD) (converted)) of the same molecule?
A: 18.8 h

Q: What about the Tmax (both sexes, human, plasma, oral, 20 mg, young subjects, 20 mg, Day 7, read-out: tmax, Mean (SD)) of the same molecule?
A: 1.67 h

Q: And the Tmax (both sexes, human, plasma, oral, 20 mg, young subjects, 20 mg, Day 7, read-out: tmax, Median)?
A: 1.5 h

Q: What about the Tmax (both sexes, human, plasma, oral, Day 1, read-out: median Tmax values, range) of the same molecule?
A: 2 to 3 h

Q: What about the Vd (both sexes, human, plasma, oral, Day 7, read-out: average apparent volume of distribution, range) of the same molecule?
A: 83 to 116 L

Q: What about the half-life (both sexes, human, plasma, oral, Day 7, read-out: average t½, range) of the same molecule?
A: 17 to 25 h

Q: What about the half-life (both sexes, human, plasma, oral, Day 7, read-out: average t½, range across genders) of the same molecule?
A: 21 to 24 h

Q: What about the Tmax (both sexes, human, plasma, oral, Day 7, read-out: median Tmax values, range) of the same molecule?
A: 1.5 to 3 h

Q: And the “Day 7/Day 1 Cmax Ratio, Mean (SD)” value (elderly, 12 mg)?
A: 1.53 (0.13)

Q: And the “Observed Accumulation Index, Mean (SD)” value (elderly, 12 mg)?
A: 2.12 (0.22)

Q: What about the “Steady State Accumulation Index, Mean (SD)” value (elderly, 12 mg) of the same molecule?
A: 1.30 (0.11)

Q: And the “CL/F, Mean (SD)” value (elderly, 12 mg, Day 1)?
A: 5.87 (1.32) L/h

Reference: patent publication US12410153B2, “Compounds, compositions and methods” (Avalo Therapeutics, Inc., priority 2014, dated 2025)
